In PubChem BioAssay AID1963425 (Molecular Pharmacology Branch, DTP, NCI, 2024):

Tested on: 323965-272-R-J2-PDC complex spheroid growth, % test/control
Experiment: Anticancer human tumor 323965-272-R-J2-PDC patient-derived pancreatic carcinoma cell line growth inhibition [Asc]
Conditions: for IC50: curve of first compound; for viability, T/C: stronger effect = lower value; active = viability on the fitted dose curve at most 10% of control; inactive = the rest
Experimental: Multicellular complex tumor spheroid response to apoptosis pathway targeting inhibitors Alrizomadlin, Pelcitoclax, and Dasminapant in combination with a variety of drugs and investigational agents in selected tumor cell lines
The MDM2 inhibitor alrizomadlin, the Bcl-2/Bcl-xL inhibitor pelcitoclax, and the IAPs inhibitor dasminapant were evaluated both individually and in combination with standard of care and investigational anticancer small molecules within a complex spheroid model of solid tumors. . Complex spheroids include a stromal component modeled by human endothelial cells (HUVEC) and fibroblasts modeled by human mesenchymal stem cells (MSCs). The concentration ranges selected for each drug and investigational agent were based upon clinically achievable concentrations if the clinical Cmax of the agent was known.
Compounds. The drugs and investigational agents: alrizomadlin (APG-115; NSC831270), pelcitoclax (APG-1252; NSC835773), dasminapant (APG-1387;NSC834197), TAK-243 (NSC785004), copanlisib (NSC809693), olaparib (NSC753686), talazoparib (NSC767125), cobimetinib (NSC 768068), eltanexor (KPT-8602, NSC 794443), abemaciclib (NSC 768073), sotorasib (NSC818433), adagrasib (NSC 831453), MRTX-1133 (NSC 836407), Iadademestat (ORY1001, NSC 806812), and RMC-4630 (NSC839698), were obtained from the NCI Developmental Therapeutics Program Chemical Repository. The FDA-approved anticancer drug set is available from the Developmental Therapeutics Program at https://dtp.cancer.gov/organization/dscb/obtaining/available plates.htm. […] The stock solutions were prepared in dimethyl sulfoxide (DMSO, Sigma-Aldrich, St. Louis, MO, cat. D2650) at 800-fold the tested concentration and stored at -70 degrees C prior to their use. All drugs and investigational agents were tested over a range starting from a high concentration at or near the clinical Cmax and decreasing in half-log increments. If the clinical Cmax for an agent had not been determined, the highest concentration tested was 10 microM.
The patient-derived cancer (PDC) cell lines include five colon adenocarcinomas: 186277-243-T-J2-PDC, 616215-338-R-J1-PDC, 439559-082-T-J2-PDC, 463943-066-T-J2-PDC, and 519858-162-T-J1-PDC; three pancreatic carcinomas: 323965-272-R-J2-PDC, 521955-158-R6-J3-PDC, and 521955-158-R2-J5-PDC; two uterine sarcomas: 327498-152-R-J2-PDC and 993429-296-R-J1-PDC; two rhabdomyosarcomas: 755483-174-R-J1-PDC and 772245-204-R-J1-PDC; two soft tissue sarcomas: 126254-015-R-J1-PDC and 494315-158-R-J1-PDC; two malignant fibrous histiocytomas: 317291-083-R-J1-PDC and 596521-263-R-J1-PDC; two breast carcinomas: 171881-019-R-J1-PDC and 885512-296-R-J2-PDC; and one ovarian carcinoma: 6556581-035-R-J-PDC were obtained from the NCI PDMR, (https://pdmr.cancer.gov). The established cell lines HSSY-2 synovial sarcoma (RRID:CVCL 8719), SYO-1 synovial sarcoma (RRID:CVCL_7146), MPNST malignant peripheral neural sheath tumor were obtained from the Sloan Kettering Institute. The following established cell lines were purchased from the American Type Culture Collection (ATCC, Manassas, VA), Sor the received from the NCI repository:, PANC-1 pancreatic carcinoma (CRL-1469, RRID:CVCL_0480), OVCAR-5 ovarian carcinoma (RRID:CVCL_1628), OVCAR-8 ovarian carcinoma (RRID:CVCL_1629), , MCF-7 breast carcinoma (CRL-12584, RRID:CVCL_0031), MDA-MB-231 breast carcinoma (CRL-12532, RRID:CVCL_0062), NCI-H1876 small cell lung carcinoma (CRL-5902, RRID:CVCL_1503), NCI-H510A small cell lung carcinoma (HTB-184, RRID:CVCL_1565), NCI-H1417 (CRL-5869, RRID:CVCL_1469), and NCI-H196 small cell lung carcinoma (CRL-5823, RRID:CVCL_1509). Dr. Peter Houghton (Greehey Children's Cancer Research Institute, University of Texas Health Science Center, San Antonio, TX) provided Rh-18 rhabdomyosarcoma (RRID:CVCL_1659). Pooled donor human umbilical vein endothelial cells (HUVEC, Lonza, cat. CC-2519) and human mesenchymal stem cells (hMSC, Lonza, cat. PT-2501) were purchased from Lonza (Walkersville, MD).
Cell Culture. […]

[1] = second compound 0.00949 µM, first compound 0.0316 µM
[2] = second compound 0.00949 µM, first compound 0.1 µM
[3] = second compound 0.03 µM, first compound 0.0316 µM
[4] = second compound 0.03 µM, first compound 0.1 µM
[5] = second compound 0.0949 µM, first compound 0.0316 µM
[6] = second compound 0.0949 µM, first compound 0.1 µM
[7] = second compound 0.3 µM, first compound 0.0316 µM
[8] = second compound 0.3 µM, first compound 0.1 µM
[9] = second compound 0.949 µM, first compound 0.0316 µM
[10] = second compound 0.949 µM, first compound 0.1 µM
[11] = second compound 3 µM, first compound 0.0316 µM
[12] = second compound 3 µM, first compound 0.1 µM
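Also: compound exposure lasted 7 days starting three days after spheroid seeding.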
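For viability, T/C in this document: 100% = DMSO vehicle control wells with viability set relative to vehicle.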

Cn1ncnc1[C@H]1c2n[nH]c(=O)c3cc(F)cc(c23)N[C@@H]1c1ccc(F)cc1 + CCN1C(C(=O)NC23CCC(C(=O)O)(CC2)CC3)C(c2cccc(Cl)c2F)C2(C(=O)Nc3cc(Cl)ccc32)C12CCCCC2
inactive: viability, T/C (second compound 0.00949 µM, first compound 0.000316 µM) 114% | viability, T/C (second compound 0.00949 µM, first compound 0.001 µM) 104% | viability, T/C (second compound 0.00949 µM, first compound 0.00316 µM) 108% | viability, T/C (second compound 0.00949 µM, first compound 0.01 µM) 113% | viability, T/C [1] 112% | viability, T/C [2] 98.3% | viability, T/C (second compound 0.03 µM, first compound 0.000316 µM) 124% | viability, T/C (second compound 0.03 µM, first compound 0.001 µM) 116% | viability, T/C (second compound 0.03 µM, first compound 0.00316 µM) 122% | viability, T/C (second compound 0.03 µM, first compound 0.01 µM) 105% | viability, T/C [3] 116% | viability, T/C [4] 108% | viability, T/C (second compound 0.0949 µM, first compound 0.000316 µM) 123% | viability, T/C (second compound 0.0949 µM, first compound 0.001 µM) 116% | viability, T/C (second compound 0.0949 µM, first compound 0.00316 µM) 104% | viability, T/C (second compound 0.0949 µM, first compound 0.01 µM) 96.6% | viability, T/C [5] 103% | viability, T/C [6] 102% | viability, T/C (second compound 0.3 µM, first compound 0.000316 µM) 115% | viability, T/C (second compound 0.3 µM, first compound 0.001 µM) 118% | viability, T/C (second compound 0.3 µM, first compound 0.00316 µM) 125% | viability, T/C (second compound 0.3 µM, first compound 0.01 µM) 108% | viability, T/C [7] 114% | viability, T/C [8] 77.7% | viability, T/C (second compound 0.949 µM, first compound 0.000316 µM) 118% | viability, T/C (second compound 0.949 µM, first compound 0.001 µM) 114% | viability, T/C (second compound 0.949 µM, first compound 0.00316 µM) 110% | viability, T/C (second compound 0.949 µM, first compound 0.01 µM) 113% | viability, T/C [9] 117% | viability, T/C [10] 93.1% | viability, T/C (second compound 3 µM, first compound 0.000316 µM) 118% | viability, T/C (second compound 3 µM, first compound 0.001 µM) 109% | viability, T/C (second compound 3 µM, first compound 0.00316 µM) 96% | viability, T/C (second compound 3 µM, first compound 0.01 µM) 105% | viability, T/C [11] 96.9% | viability, T/C [12] 85.8%
> 0.1 µM: IC50 (second compound 0.00949 µM) | IC50 (second compound 0.03 µM) | IC50 (second compound 0.0949 µM) | IC50 (second compound 0.3 µM) | IC50 (second compound 0.949 µM) | IC50 (second compound 3 µM)

O=C(c1cc(Cc2n[nH]c(=O)c3ccccc23)ccc1F)N1CCN(C(=O)C2CC2)CC1 + CCN1C(C(=O)NC23CCC(C(=O)O)(CC2)CC3)C(c2cccc(Cl)c2F)C2(C(=O)Nc3cc(Cl)ccc32)C12CCCCC2
inactive: viability, T/C [1] 106% | viability, T/C [2] 107% | viability, T/C (second compound 0.00949 µM, first compound 0.316 µM) 113% | viability, T/C (second compound 0.00949 µM, first compound 1 µM) 110% | viability, T/C (second compound 0.00949 µM, first compound 3.16 µM) 110% | viability, T/C (second compound 0.00949 µM, first compound 10 µM) 91.5% | viability, T/C [3] 103% | viability, T/C [4] 111% | viability, T/C (second compound 0.03 µM, first compound 0.316 µM) 106% | viability, T/C (second compound 0.03 µM, first compound 1 µM) 106% | viability, T/C (second compound 0.03 µM, first compound 3.16 µM) 107% | viability, T/C (second compound 0.03 µM, first compound 10 µM) 95.8% | viability, T/C [5] 113% | viability, T/C [6] 107% | viability, T/C (second compound 0.0949 µM, first compound 0.316 µM) 111% | viability, T/C (second compound 0.0949 µM, first compound 1 µM) 108% | viability, T/C (second compound 0.0949 µM, first compound 3.16 µM) 116% | viability, T/C (second compound 0.0949 µM, first compound 10 µM) 100% | viability, T/C [7] 116% | viability, T/C [8] 107% | viability, T/C (second compound 0.3 µM, first compound 0.316 µM) 117% | viability, T/C (second compound 0.3 µM, first compound 1 µM) 117% | viability, T/C (second compound 0.3 µM, first compound 3.16 µM) 103% | viability, T/C (second compound 0.3 µM, first compound 10 µM) 97.5% | viability, T/C [9] 112% | viability, T/C [10] 106% | viability, T/C (second compound 0.949 µM, first compound 0.316 µM) 122% | viability, T/C (second compound 0.949 µM, first compound 1 µM) 95.4% | viability, T/C (second compound 0.949 µM, first compound 3.16 µM) 109% | viability, T/C (second compound 0.949 µM, first compound 10 µM) 85.1% | viability, T/C [11] 102% | viability, T/C [12] 105% | viability, T/C (second compound 3 µM, first compound 0.316 µM) 107% | viability, T/C (second compound 3 µM, first compound 1 µM) 105% | viability, T/C (second compound 3 µM, first compound 3.16 µM) 92.4% | viability, T/C (second compound 3 µM, first compound 10 µM) 93.3%
> 10 µM: IC50 (second compound 0.00949 µM) | IC50 (second compound 0.03 µM) | IC50 (second compound 0.0949 µM) | IC50 (second compound 0.3 µM) | IC50 (second compound 0.949 µM) | IC50 (second compound 3 µM)
